Reference: ChEMBL document CHEMBL1152857, “Possible anticancer agents: QSAR analogs of glutamamide: synthesis and pharmacological activity of 1,5-N,N'-disubstituted-2-(substituted benzenesulphonyl) glutamamides” (2009)

Assays:
[1] = Anticancer activity against mouse EAC cells xenografted in Swiss albino mouse assessed as inhibition of ascitic fluid weight; type: functional, Ehrlich
IMR-32 = experiment: Cytotoxicity against human IMR32 cells at 60 ug/ml by MTT assay; type: functional
[2] = Anticancer activity against mouse EAC cells xenografted in Swiss albino mouse assessed as inhibition of ascitic cell count; type: functional, Ehrlich
[3] = Anticancer activity against mouse EAC cells xenografted in Swiss albino mouse assessed as inhibition of ascitic fluid weight at 1 mg/kg; type: functional; conditions: Ehrlich
[4] = Anticancer activity against mouse EAC cells xenografted in Swiss albino mouse assessed as inhibition of ascitic cell count at 1 mg/kg; type: functional; conditions: Ehrlich

| SMILES | inhibition (INH) [1] [%] | inhibition at 60 µg/mL (IMR-32) [%] | inhibition (INH) [2] [%] | inhibition in vivo at 1 mg/kg [3] [%] | inhibition in vivo at 1 mg/kg [4] [%] |
| --- | --- | --- | --- | --- | --- |
| CC(C)NC(=O)CCC(NS(=O)(=O)c1cc(Cl)ccc1Cl)C(=O)NC(C)C (stereo not given) | 38.5 | 16.7 | 73.3 | – | – |
| CCNC(=O)CCC(NS(=O)(=O)c1cc(C)ccc1Cl)C(=O)NCC (stereo not given) | 28.1 | 31.8 | 32.3 | – | – |
| CCCCCCNC(=O)CCC(NS(=O)(=O)c1cc(Cl)ccc1Cl)C(=O)NCCCCCC (stereo not given) | 31.9 | 12.4 | 52.9 | – | – |
| N#[N+]/C=C(\[O-])OC[C@H](N)C(=O)O [AZASERIN] | – | – | – | 100 | 100 |
| O=C(CCC(NS(=O)(=O)c1cc(Cl)ccc1Cl)C(=O)NCc1ccccc1)NCc1ccccc1 (stereo not given) | 49.9 | 13.4 | 53.1 | – | – |
| Cc1ccc(Cl)c(S(=O)(=O)NC(CCC(N)=O)C(N)=O)c1 (stereo not given) | 36.5 | 25.8 | 28.6 | – | – |
| CO[C@@]12[C@H](COC(N)=O)C3=C(C(=O)C(C)=C(N)C3=O)N1C[C@@H]1N[C@@H]12 [MITOMYCIN] | – | – | – | 100 | 100 |
| Cc1ccc(Cl)c(S(=O)(=O)NC(CCC(=O)NC(C)C)C(=O)NC(C)C)c1 (stereo not given) | 81.5 | 29.8 | 53 | – | – |
| Cc1ccc(Cl)c(S(=O)(=O)NC(CCC(=O)NC2CCCCC2)C(=O)NC2CCCCC2)c1 (stereo not given) | 40.2 | 49.7 | 35 | – | – |
| CC(C)CNC(=O)CCC(NS(=O)(=O)c1ccc(Br)cc1)C(=O)NCC(C)C (stereo not given) | 54 | 17.1 | 50.8 | – | – |
| CCCCNC(=O)CCC(NS(=O)(=O)c1cc(Cl)ccc1Cl)C(=O)NCCCC (stereo not given) | 34 | 15.8 | 57.9 | – | – |
| CC(C)NC(=O)CCC(NS(=O)(=O)c1ccc(C(C)(C)C)cc1)C(=O)NC(C)C (stereo not given) | 44.7 | 65.6 | 34.1 | – | – |
| CCNC(=O)CCC(NS(=O)(=O)c1cc(Cl)ccc1Cl)C(=O)NCC (stereo not given) | 60.5 | 12.9 | 67.5 | – | – |
| CCCCCNC(=O)CCC(NS(=O)(=O)c1ccc(Cl)c(Cl)c1)C(=O)NCCCCC (stereo not given) | 28.1 | 20.8 | 10 | – | – |
| O=C(CCC(NS(=O)(=O)c1cc(Cl)ccc1Cl)C(=O)Nc1ccccc1)Nc1ccccc1 (stereo not given) | 35.2 | 22.9 | 71.1 | – | – |
| CCCCCCNC(=O)CCC(NS(=O)(=O)c1cc(C)ccc1Cl)C(=O)NCCCCCC (stereo not given) | 24.2 | 11.3 | 33.4 | – | – |
| O=C(CCC(NS(=O)(=O)c1ccc(Cl)c(Cl)c1)C(=O)NCc1ccccc1)NCc1ccccc1 (stereo not given) | 40 | 11.4 | 45.3 | – | – |
| Cc1ccc(S(=O)(=O)NC(CCC(N)=O)C(N)=O)c(C)c1 (stereo not given) | 31.2 | 28.2 | 35.2 | – | – |

| SMILES | inhibition (INH) [1] [%] | inhibition at 60 µg/mL (IMR-32) [%] | inhibition (INH) [2] [%] | inhibition in vivo at 1 mg/kg [3] [%] | inhibition in vivo at 1 mg/kg [4] [%] |
| --- | --- | --- | --- | --- | --- |
| CCCNC(=O)CCC(NS(=O)(=O)c1cc(C)ccc1Cl)C(=O)NCCC (stereo not given) | – | 14.9 | – | – | – |
| CCCCCNC(=O)CCC(NS(=O)(=O)c1cc(Cl)ccc1Cl)C(=O)NCCCCC (stereo not given) | 41.2 | 12.2 | 61.1 | – | – |
| CC(C)CNC(=O)CCC(NS(=O)(=O)c1cc(Cl)ccc1Cl)C(=O)NCC(C)C (stereo not given) | 42.5 | 20.4 | 79.3 | – | – |
| CCCCNC(=O)CCC(NS(=O)(=O)c1ccc(C)cc1C)C(=O)NCCCC (stereo not given) | 46.1 | 46.1 | 35.6 | – | – |
| CCCCCNC(=O)CCC(NS(=O)(=O)c1cc(C)ccc1Cl)C(=O)NCCCCC (stereo not given) | 33.3 | 14.7 | 47.1 | – | – |
| O=C(CCC(NS(=O)(=O)c1ccc(Br)cc1)C(=O)NC1CCCCC1)NC1CCCCC1 (stereo not given) | 43 | 18.4 | 47 | – | – |
| CCNC(=O)CCC(NS(=O)(=O)c1ccc(C(C)(C)C)cc1)C(=O)NCC (stereo not given) | 30.8 | 58.4 | 21.6 | – | – |
| CC(C)(C)c1ccc(S(=O)(=O)NC(CCC(N)=O)C(N)=O)cc1 (stereo not given) | 27.5 | – | 42.15 | – | – |
| Cc1ccc(Cl)c(S(=O)(=O)NC(CCC(=O)Nc2ccccc2)C(=O)Nc2ccccc2)c1 (stereo not given) | 41.2 | – | 45.5 | – | – |
| O=C(CCC(NS(=O)(=O)c1ccc(Br)cc1)C(=O)Nc1ccccc1)Nc1ccccc1 (stereo not given) | 63.4 | 10 | 66.5 | – | – |
| [N-]=[N+]=CC(=O)CC[C@H](N)C(=O)O [6-DIAZO-5-OXO-L-NORLEUCINE] | – | – | – | 100 | 100 |
| Cc1ccc(Cl)c(S(=O)(=O)NC(CCC(=O)NCC(C)C)C(=O)NCC(C)C)c1 (stereo not given) | 27.9 | – | 40 | – | – |
| CCCCNC(=O)CCC(NS(=O)(=O)c1cc(C)ccc1Cl)C(=O)NCCCC (stereo not given) | 25.2 | 18 | 43.5 | – | – |
| O=C(CCC(NS(=O)(=O)c1ccc(Cl)c(Cl)c1)C(=O)NC1CCCCC1)NC1CCCCC1 (stereo not given) | 16.8 | 24 | 17.4 | – | – |
| CCCCCCNC(=O)CCC(NS(=O)(=O)c1ccc(C)cc1C)C(=O)NCCCCCC (stereo not given) | 38.4 | 66 | 52.1 | – | – |
| Cc1ccc(Cl)c(S(=O)(=O)NC(CCC(=O)NCc2ccccc2)C(=O)NCc2ccccc2)c1 (stereo not given) | 36.5 | – | 50.5 | – | – |
| O=C(CCC(NS(=O)(=O)c1ccc(Br)cc1)C(=O)NCc1ccccc1)NCc1ccccc1 (stereo not given) | 70 | – | 48.9 | – | – |
